The text below walks through data of US10160762B2, “6-alkyl dihydropyrazolopyrimidinone compounds as PDE2 inhibitors” (Merck Sharp & Dohme Corp., priority 2015, dated 2018).

For the assay, the target named is T1, Rhesus PDE2A3 (Macaca mulatta, UniProt B3VTJ2).
T1 construct: made in house; host or cells: AD293 cells, transient transfection; supernatant of sonicated lysate
T1 sequence (B3VTJ2 1-941): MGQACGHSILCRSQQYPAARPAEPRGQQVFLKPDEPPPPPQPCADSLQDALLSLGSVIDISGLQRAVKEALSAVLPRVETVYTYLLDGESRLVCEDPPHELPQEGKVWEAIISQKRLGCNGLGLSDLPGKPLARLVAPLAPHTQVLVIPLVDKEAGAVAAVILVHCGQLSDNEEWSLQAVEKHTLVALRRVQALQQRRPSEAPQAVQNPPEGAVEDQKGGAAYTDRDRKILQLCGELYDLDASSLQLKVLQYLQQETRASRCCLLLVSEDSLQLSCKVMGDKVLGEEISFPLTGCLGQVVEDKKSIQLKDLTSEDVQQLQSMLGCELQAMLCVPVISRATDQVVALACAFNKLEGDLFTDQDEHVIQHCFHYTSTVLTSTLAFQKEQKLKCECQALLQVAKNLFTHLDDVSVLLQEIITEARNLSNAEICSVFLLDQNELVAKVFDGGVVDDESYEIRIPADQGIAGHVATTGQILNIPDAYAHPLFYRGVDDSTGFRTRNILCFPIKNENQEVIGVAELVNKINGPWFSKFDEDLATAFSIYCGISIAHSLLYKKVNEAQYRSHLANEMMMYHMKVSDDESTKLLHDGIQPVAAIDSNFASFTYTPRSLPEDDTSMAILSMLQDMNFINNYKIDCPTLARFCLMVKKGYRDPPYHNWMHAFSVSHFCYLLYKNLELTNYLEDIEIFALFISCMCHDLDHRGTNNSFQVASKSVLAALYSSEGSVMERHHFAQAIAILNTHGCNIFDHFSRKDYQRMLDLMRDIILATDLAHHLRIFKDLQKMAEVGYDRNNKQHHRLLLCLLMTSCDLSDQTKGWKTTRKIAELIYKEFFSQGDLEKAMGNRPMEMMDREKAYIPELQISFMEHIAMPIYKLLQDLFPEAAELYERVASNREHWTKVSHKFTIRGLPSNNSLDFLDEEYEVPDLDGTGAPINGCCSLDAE
Briefly: PDE2 fluorescence polarization (IMAP FP) inhibition assay, rhesus PDE2A3. It counts as biochemical, rhesus macaque. The essentials: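 Enzyme source was the lysate supernatant of AD293 cells transiently expressing rhesus PDE2A3, diluted to give 20% conversion of 50 nM FAM-cAMP, with 1 µM cGMP as activator. Buffer was 10 mM Tris pH 7.2, 10 mM MgCl2, 1 mM DTT.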
(In general: Fluorescence polarisation rises when a labelled molecule tumbles more slowly, as on binding a larger partner.)

Setting [1] is: Lab A, read-out: Rhesus PDE2 Ki (nM) Lab A.
Setting [2] is: Lab B, read-out: Rhesus PDE2 Ki (nM) Lab B.

By Ki is commonly meant the dissociation constant of the complex between target and ligand, obtained from inhibition or displacement.

Like-named read-outs stand apart in the source and are kept apart here.

For the molecule `Cc1nc2c(c(CO)nn2C(C)(C)c2ccc(C(F)(F)F)cc2)c(=O)[nH]1` [Example 9, 3-(Hydroxymethyl)-6-methyl-1-{1-methyl-1-[4-(trifluoromethyl)phenyl]ethyl}-1,5-dihydro-4H-pyrazolo[3,4-d]pyrimidin-4-one], the Ki reads like this: under setting [1], 54 nM; under setting [2], 56 nM.

On to `Cc1nc2c(c(CO)nn2[C@@H](C)c2ccc(OC(F)(F)F)cc2)c(=O)[nH]1` [Example 158, (S)-3-(Hydroxymethyl)-6-methyl-1-(1-(4-(trifluoromethoxy)phenyl)ethyl)-1H-pyrazolo[3,4-d]pyrimidin-4(5H)-one], for which the inhibition constant Ki under setting [2] came out at 4.5 nM.

`COCc1nc2c(c(C)nn2C(C)c2ccc(C(F)(F)F)cc2)c(=O)[nH]1` (centres unmarked) [Example 48, 6-(Methoxymethyl)-3-methyl-1-{1-[4-(trifluoromethyl)phenyl]ethyl}-1,5-dihydro-4H-pyrazolo[3,4-d]pyrimidin-4-one]: under setting [1], the Ki is 36 nM.

Take `Cc1nc2c(c(CF)nn2C(C)c2ccc(OC(F)(F)F)cc2)c(=O)[nH]1` (single isomer, unassigned) [Example 206, (R)- or (S)-3-(Fluoromethyl)-6-methyl-1-(1-(4-(trifluoro-methoxy-)phenyl)ethyl)-1H-pyrazolo[3,4-d]pyrimidin-4(5H)-one]: the Ki under setting [1] came to 41 nM and the inhibition constant Ki under setting [2] worked out at 123 nM.

`Cc1nc2c(c(CO)nn2C(C)c2ccc(OC(F)(F)F)c(F)c2)c(=O)[nH]1` (single isomer, unassigned) [Example 11, (S)- or (R)-1-(1-(3-Fluoro-4-(trifluoromethoxy)phenyl)ethyl)-3-(hydroxymethyl)-6-methyl-1H-pyrazolo[3,4-d]pyrimidin-4(5H)-one]: the Ki is, setting by setting: under setting [1], 0.85 nM; under setting [2], 2 nM.

For the molecule `Cc1nc2c(c(CO)nn2C(C)c2ccc(C(F)(F)F)c(F)c2)c(=O)[nH]1` (single isomer, unassigned) [Example 13, (S)- or (R)-1-(1-(3-Fluoro-4-(trifluoromethyl)phenyl)ethyl)-3-(hydroxymethyl)-6-methyl-1H-pyrazolo[3,4-d]pyrimidin-4(5H)-one], the Ki is, setting by setting: under setting [1], 1.3 nM; under setting [2], 3 nM.

As for `Cc1nc2c(c(C(O)C(F)(F)F)nn2C(C)c2ccc(C(F)(F)F)cc2)c(=O)[nH]1` (centres unmarked) [Example 327, 6-Methyl-3-(2,2,2-trifluoro-1-hydroxyethyl)-1-{1-[4-(trifluoromethyl)phenyl]ethyl}-1,5-dihydro-4H-pyrazolo[3,4-d]pyrimidin-4-one], the Ki under setting [1] was 93 nM.

For `Cc1nn(C(C)c2ccc(C(F)(F)F)cc2)c2nc(C3CCCC3)[nH]c(=O)c12` (centres unmarked) [Example 40, 6-Cyclopentyl-3-methyl-1-{1-[4-(trifluoromethyl)phenyl]ethyl}-1,5-dihydro-4H-pyrazolo[3,4-d]pyrimidin-4-one], the Ki under setting [1] was found to be 340 nM.

Turning to `Cc1nc2c(c(CO)nn2C(C)c2ccc(C(F)(F)F)cc2)c(=O)[nH]1` (single isomer, unassigned) [Example 26, (R)- or (S)-3-(Hydroxymethyl)-6-methyl-1-{1-[4-(trifluoromethyl)phenyl]ethyl}-1,5-dihydro-4H-pyrazolo[3,4-d]pyrimidin-4-one], the Ki reads like this: under setting [1], 216 nM; under setting [2], 456 nM.

With `Cc1nn(C(C)c2ccc(C(F)(F)F)cc2)c2nc(C3CCC3)[nH]c(=O)c12` (centres unmarked) [Example 39, 6-Cyclobutyl-3-methyl-1-{1-[4-(trifluoromethyl)phenyl]ethyl}-1,5-dihydro-4H-pyrazolo[3,4-d]pyrimidin-4-one], the Ki under setting [1] is 147 nM.

Take `CCC(CCCc1ccccc1)n1nc(C)c2c(=O)[nH]c(C)nc21` (centres unmarked) [Example 338, 1-(1-ethyl-4-phenylbutyl)-3,6-dimethyl-1,5-dihydro-4H-pyrazolo[3,4-d]pyrimidin-4-one]: the Ki under setting [1] came to 113 nM.

Take `Cc1nc2c(c(CO)nn2C(C)c2ccc(OC(F)(F)F)c(F)c2)c(=O)[nH]1` (single isomer, unassigned) [Example 10, (R)- or (S)-1-(1-(3-Fluoro-4-(trifluoromethoxy)phenyl)ethyl)-3-(hydroxymethyl)-6-methyl-1H-pyrazolo[3,4-d]pyrimidin-4(5H)-one]: the Ki reads like this: under setting [1], 39 nM; under setting [2], 103 nM.

For `COc1ccc(Cc2nc3c(c(CF)nn3C(C)c3ccc(C(F)(F)F)cc3)c(=O)[nH]2)cc1OC` (single isomer, unassigned) [Example 222, (R)- or (S)-6-(3,4-Dimethoxybenzyl)-3-(fluoromethyl)-1-(1-(4-(trifluoromethyl)phenyl)ethyl)-1,5-dihydro-4H-pyrazolo[3,4-d]pyrimidin-4-one], the Ki under setting [1] is 0.17 nM and the inhibitory constant (Ki) under setting [2] was roughly 0.28 nM.

Turning to `Cc1nn(C(C)c2ccc(C(F)(F)F)cc2)c2nc(Cc3cccc(O)c3)[nH]c(=O)c12` (centres unmarked) [Example 30, 6-(3-Hydroxybenzyl)-3-methyl-1-(1-(4-(trifluoromethyl)phenyl)ethyl)-1H-pyrazolo[3,4-d]pyrimidin-4(5H)-one], the inhibition constant Ki under setting [1] stood at 6.6 nM and the inhibition constant (Ki) under setting [2] is 11 nM.

`Cc1nn(C(C)c2ccc(C(F)(F)F)cc2)c2nc(C3CC3)[nH]c(=O)c12` (centres unmarked) [Example 42, 6-Cyclopropyl-3-methyl-1-{1-[4-(trifluoromethyl)phenyl]ethyl}-1,5-dihydro-4H-pyrazolo[3,4-d]pyrimidin-4-one]: under setting [1], the Ki is 58 nM.

For `COc1cccc(Cc2nc3c(c(C)nn3C(C)c3ccc(C(F)(F)F)cc3)c(=O)[nH]2)c1` (centres unmarked) [Example 45, 6-(3-Methoxybenzyl)-3-methyl-1-{1-[4-(trifluoromethyl)phenyl]ethyl}-1,5-dihydro-4H-pyrazolo[3,4-d]pyrimidin-4-one], the Ki under setting [1] came out at 26 nM.

As to `Cc1nc2c(c(CF)nn2C(C)c2ccc(C(C)(C)C)cc2)c(=O)[nH]1` (single isomer, unassigned) [Example 214, (R)- or (S)-1-(1-(4-tert-Butylphenyl)ethyl)-3-(fluoromethyl)-6-methyl-1H-pyrazolo[3,4-d]pyrimidin-4(5H)-one], the inhibition constant Ki reads like this: under setting [1], 179 nM; under setting [2], 318 nM.

For `Cc1nc2c(c(CO)nn2C(C)c2ccc(OC(F)(F)F)cc2)c(=O)[nH]1` (centres unmarked) [Example 4], the Ki runs as follows: under setting [1], 3.8 nM; under setting [2], 7.1 nM.

Turning to `CCOCCc1nc2c(c(C)nn2C(C)c2ccc(C(F)(F)F)cc2)c(=O)[nH]1` (centres unmarked) [Example 35, 6-(2-Ethoxyethyl)-3-methyl-1-(1-(4-(trifluoromethyl)phenyl)ethyl)-1H-pyrazolo[3,4-d]pyrimidin-4(5H)-one], the Ki under setting [1] worked out at 164 nM.

`Cc1nc2c(c(CO)nn2C(c2ccc(C(F)(F)F)cc2)C2CC2)c(=O)[nH]1` (centres unmarked) [Example 28, 1-(Cyclopropyl(4-(trifluoromethyl)phenyl)methyl)-3-(hydroxymethyl)-6-methyl-1H-pyrazolo[3,4-d]pyrimidin-4(5H)-one]: the Ki runs as follows: under setting [1], 0.75 nM; under setting [2], 2.2 nM.

For `Cc1nc2c(c(CF)nn2C2(c3ccc(C(F)(F)F)cc3)CCC2)c(=O)[nH]1` [Example 202, 3-(Fluoromethyl)-6-methyl-1-(1-(4-(trifluoromethyl)phenyl)cyclobutyl)-1H-pyrazolo[3,4-d]pyrimidin-4(5H)-one], the inhibition constant (Ki) under setting [2] came to 3.1 nM.

On to `Cc1ccc(C(C)n2nc(CO)c3c(=O)[nH]c(C)nc32)cc1` (centres unmarked) [Example 2, 3-(Hydroxymethyl)-6-methyl-1-(1-p-tolylethyl)-1H-pyrazolo[3,4-d]pyrimidin-4(5H)-one], for which the inhibition constant Ki runs as follows: under setting [1], 26 nM; under setting [2], 30 nM.

Take `COc1ccc(Cc2nc3c(c(C)nn3C(C)c3ccc(C(F)(F)F)cc3)c(=O)[nH]2)cc1OC` (centres unmarked) [Example 44, 6-(3,4-Dimethoxybenzyl)-3-methyl-1-{1-[4-(trifluoromethyl)phenyl]ethyl}-1,5-dihydro-4H-pyrazolo[3,4-d]pyrimidin-4-one]: the Ki under setting [1] was found to be 4.8 nM.

In the case of `Cc1nc2c(c(CF)nn2C(C)c2ccc(C(C)(C)C)cc2)c(=O)[nH]1` (single isomer, unassigned) [Example 215, (S)- or (R)-1-(1-(4-tert-Butylphenyl)ethyl)-3-(fluoromethyl)-6-methyl-1H-pyrazolo[3,4-d]pyrimidin-4(5H)-one], the inhibition constant Ki by setting is: under setting [1], 0.24 nM; under setting [2], 0.63 nM.

In the case of `COc1ccc(Cc2nc3c(c(C(F)F)nn3C(C)c3ccc(C(F)(F)F)cc3)c(=O)[nH]2)cc1OC` (single isomer, unassigned) [Example 196], the Ki under setting [2] was found to be 28 nM.
